Laboratory results reported in PMC6362038, “Secondary structures and cell-penetrating abilities of arginine-rich peptide foldamers” (Scientific Reports, 2019).
Square brackets hold non-standard residues; d marks the D form. Peptide text beside a SMILES is read from it. * marks the point of attachment. 5FAM = O=C1OC2(c3ccc(O)cc3Oc3cc(O)ccc32)c2ccc(C(=O)*)cc21; αMeL = CC(C)C[C@](C)(N)C(=O)O; Ac5c = NC1(C(=O)O)CCCC1

System: CHO-K1 cells
Experiment: Inhibition of cellular uptake by specific endocytosis inhibitors
Format: cell-based
Details: 30 min pre-incubation 37 °C, 1 µM peptide, 1 h, flow cytometry, n = 3; for uptake in presence of nystatin (caveolae-mediated endocytosis inhibitor): CHO-K1, nystatin 25 µg/mL; for uptake in presence of sucrose (clathrin-mediated endocytosis inhibitor): CHO-K1, sucrose 0.4 M
Method: To obtain further information on the cellular uptake mechanisms of peptides, inhibitory experiments were carried out using specific endocytosis inhibitors (amilorilde: macropinocytosis; sucrose: clathrin-mediated endocytosis; nystatin: caveolae-mediated endocytosis) against CHO-K1 cells (Fig. S5). […] (αMe)Leu peptide appeared to internalize into CHO-K1 cells via all three routes, while Ac5c peptide appeared to internalize mainly via clathrin-mediated endocytosis and caveolae-mediated endocytosis.
CHO-K1 cells were seeded on 24-well culture plates (100,000 cells/well) and incubated in 400 µL of DMEM containing 10% FBS. The medium was then replaced with fresh medium containing 10% FBS in the absence (untreated) or presence of amiloride (5 mM), sucrose (0.4 M), or nystatin (25 µg/mL), cells were pre-incubated at 37 °C for 30 min. A peptide solution was added to each well at a concentration of 1 µM. The medium was removed after 1-h incubation and subsequent operations were conducted in the same manner as cellular uptake experiments.
A c5cAc5c (aMe L e uMe)Leu untreated ami loride su cro se n ystatin
Figure S5. Effects of inhibitors on internalization of peptides against CHO-K1 cells. Error bars represent the standard deviation, n = 3. *P < 0.05, **P < 0.01.

SMILES	uptake in presence of nystatin (caveolae-mediated endocytosis inhibitor)	uptake in presence of sucrose (clathrin-mediated endocytosis inhibitor)	uptake in presence of amiloride (macropinocytosis inhibitor) (CHO-K1, amiloride 5 mM)
CC(C)C[C@](C)(NC(=O)[C@H](CCCNC(=N)N)NC(=O)[C@H](CCCNC(=N)N)NC(=O)[C@](C)(CC(C)C)NC(=O)[C@H](CCCNC(=N)N)NC(=O)[C@H](CCCNC(=N)N)NC(=O)[C@](C)(CC(C)C)NC(=O)[C@H](CCCNC(=N)N)NC(=O)[C@H](CCCNC(=N)N)NC(=O)CNC(=O)c1ccc2c(c1)C(=O)OC21c2ccc(O)cc2Oc2cc(O)ccc21)C(N)=O [(αMe)Leu peptide] (5FAM-GRR[αMeL]RR[αMeL]RR[αMeL]-NH2)	significantly decreased	significantly decreased	
N=C(N)NCCC[C@H](NC(=O)CNC(=O)c1ccc2c(c1)C(=O)OC21c2ccc(O)cc2Oc2cc(O)ccc21)C(=O)N[C@@H](CCCNC(=N)N)C(=O)NC1(C(=O)N[C@@H](CCCNC(=N)N)C(=O)N[C@@H](CCCNC(=N)N)C(=O)NC2(C(=O)N[C@@H](CCCNC(=N)N)C(=O)N[C@@H](CCCNC(=N)N)C(=O)NC3(C(N)=O)CCCC3)CCCC2)CCCC1 [Ac5c peptide] (5FAM-GRR[Ac5c]RR[Ac5c]RR[Ac5c]-NH2)	significantly decreased	significantly decreased	significantly decreased
